Results reported in PubChem BioAssay (NCI).
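The compound was tested at five concentrations on cells cultured in 96-well plates, with a 48-hour exposure period. TGI denotes the concentration required for complete inhibition of growth.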

Key:
Assay in all cases: growth of human tumour cells (NCI), 48 h
[1] = tested on: NCI-H460 lung
[2] = tested on: DMS 114 small cell lung
[3] = tested on: OVCAR-8 ovarian
[4] = tested on: HOP-18 NSCLC
[5] = tested on: HT29 colon
[6] = tested on: OVCAR-4 ovarian
[7] = tested on: HCT-15 colon
[8] = tested on: SF-268 CNS
[9] = tested on: SNB-78 CNS
[10] = tested on: SF-539 CNS
[11] = tested on: A549 NSCLC
[12] = tested on: SK-OV-3 ovarian
[13] = tested on: KM20L2 colon
[14] = tested on: EKVX NSCLC
[15] = tested on: 786-0 renal
[16] = tested on: LXFL 529 NSCLC
[17] = tested on: K-562 leukemia
[18] = tested on: SW-620 colon
[19] = tested on: CCRF-CEM leukemia
[20] = tested on: MALME-3M melanoma
[21] = tested on: SF-295 CNS
[22] = tested on: SNB-75 CNS
[23] = tested on: COLO 205 colon
[24] = tested on: SK-MEL-5 melanoma
[25] = tested on: TK-10 renal
[26] = tested on: OVCAR-5 ovarian
[27] = tested on: UACC-257 melanoma
[28] = tested on: NCI-H23 lung
[29] = tested on: DMS 273 small cell lung
[30] = tested on: CAKI-1 renal
[31] = tested on: IGROV1 ovarian
[32] = tested on: UACC-62 melanoma
[33] = tested on: RPMI-8226 leukemia
[34] = tested on: HL-60(TB) leukemia
[35] = tested on: M14 melanoma
[36] = tested on: U251 CNS
[37] = tested on: M19-MEL melanoma
[38] = tested on: A498 renal
[39] = tested on: SK-MEL-2 melanoma
[40] = tested on: OVCAR-3 ovarian
[41] = tested on: HOP-62 NSCLC
[42] = tested on: UO-31 renal
[43] = tested on: LOX IMVI melanoma
[44] = tested on: SNB-19 CNS
[45] = tested on: MOLT-4 leukemia
[46] = tested on: HCT-116 colon
[47] = tested on: RXF 393 renal
[48] = tested on: NCI-H226 lung
[49] = tested on: SK-MEL-28 melanoma
[50] = tested on: NCI-H522 lung
[51] = tested on: KM12 colon
[52] = tested on: HCC-2998 colon
[53] = tested on: DLD-1 colon
[54] = tested on: PC-3 prostate
[55] = tested on: NCI/ADR-RES ovarian
[56] = tested on: SR leukemia
[57] = tested on: SN12C renal
[58] = tested on: MDA-MB-231 breast
[59] = tested on: HOP-92 NSCLC
[60] = tested on: MDA-N
[61] = tested on: DU-145 prostate
[62] = tested on: MDA-MB-435
[63] = tested on: HS 578T breast
[64] = tested on: MCF7 breast
[65] = tested on: ACHN renal
[66] = tested on: BT-549 breast
[67] = tested on: T-47D breast

Measured: TGI

O=C(O)c1ccc(C2C(=O)N[C@@H]3CCC[C@H]23)cc1 (stereo not given in full)
not listed: [54] | [55] | [56] | [57] | [58] | [59] | [60] | [61] | [62] | [63] | [64] | [65] | [66] | [67]
> 100 µM: all other assays above

COC(=O)/C(C#N)=C(/NCCN)Nc1ccccc1
not listed: [2] | [4] | [9] | [13] | [16] | [19] | [29] | [32] | [37] | [51] | [53]
> 100 µM: all other assays above

CCN(C(=O)/C=C/c1ccco1)c1ccccc1
not listed: [2] | [4] | [9] | [10] | [13] | [16] | [20] | [29] | [37] | [53]
> 100 µM: all other assays above

CO[C@@H]1O[C@H](C(=O)c2ccccc2)[C@H]2OC(C)(C)O[C@@H]12
not listed: [2] | [4] | [5] | [9] | [11] | [13] | [16] | [20] | [29] | [37] | [49] | [53] | [65]
> 100 µM: all other assays above
